Data: the PolyMetriX glass transition set
± gives the standard deviation of the reports.

With *OC1CCC(OC(=O)OCCCCCCOC(*)=O)CC1 (repeat unit) the glass transition temperature was 10.00 °C.
For *CCCCCCOC(=O)NCCCCCCNC(=O)O* (repeat unit), the glass transition temperature was 168.00 °C.
Work on *CC(*)C(=O)OCCSCC#N (repeat unit) yielded a glass transition temperature of -24.00 °C.
In the case of *O[Si](C)(C)O[Si](C)(C)Oc1ccc(-c2ccc(*)cc2)cc1 (repeat unit), the glass transition temperature is reported as -4.00 °C.
For *CCN(CCOC(=O)c1ccc(C(=O)O*)c(OC)c1)c1ccc(/N=N/c2ccc(/C=C/c3nc4ccc([N+](=O)[O-])cc4n3CC)cc2)cc1 (repeat unit), the glass transition temperature was 173.00 °C.
*Oc1cc(OC(=O)c2ccc(Oc3ccc(C4(c5ccc(Oc6ccc(C(*)=O)cc6)cc5)CCC(C(C)(C)C)CC4)cc3)cc2)ccc1C12CC3CC(CC(C3)C1)C2 (repeat unit) showed a glass transition temperature of 180.00 °C.
In the case of *CC(*)(C)C(=O)OCCN(CCCC)c1ccc(/N=N/c2ccc(S(=O)(=O)Nc3cc(C)on3)cc2)cc1 (repeat unit), the glass transition temperature is reported as 105.00 °C.
Work on *CC(*)(C)C(=O)OCCCCCCCCCCOc1ccc(/N=N/c2ccc(C#N)cc2)cc1 (repeat unit) yielded a glass transition temperature of 51.00 °C.
In the case of *C(=O)Nc1ccc(NC(=O)c2ccc3c(c2)C(=O)N(c2ccc(NC(=O)Nc4ccc(N5C(=O)c6ccc(*)cc6C5=O)cc4)cc2)C3=O)cc1 (repeat unit), the glass transition temperature is reported as 216.00 °C.
In the case of *CC(=O)NCCCCCCNC(=O)CC1COC(*)CO1 (repeat unit), the glass transition temperature is reported as 73.00 °C.
In the case of *CCCCCCS(=O)(=O)c1ccc(/N=N/c2ccc(N(C)CCCCCC(=O)O*)cc2)cc1 (repeat unit), the glass transition temperature is reported as 60.50 °C.
*Oc1ccc(C2(c3ccc(Oc4ccc(/C=N/N=C/c5ccc(*)cc5)cc4)cc3)c3ccccc3-c3ccccc32)cc1 (repeat unit) showed a glass transition temperature of 227.00 °C.
With *Oc1ccc(CC(NC(=O)CCc2ccc(OC(=O)COCC(*)=O)cc2)C(=O)OCC)cc1 (repeat unit) the glass transition temperature was 79.00 °C.
Work on *C(=O)OCCCCCCCOC(=O)c1ccc(NC(=O)c2ccc(N3C(=O)c4ccc(*)cc4C3=O)cc2)cc1 (repeat unit) yielded a glass transition temperature of 106.00 °C.
For *CCN(*)CC[Si](C)(C)C (repeat unit), the glass transition temperature was -64.80 °C.
In the case of *Nc1cccc(NC(=O)c2ccc(NC(=O)c3ccc([Si](C)(C)c4ccc(C(=O)Nc5ccc(C(*)=O)cc5)cc4)cc3)cc2)c1 (repeat unit), the glass transition temperature is reported as 303.00 °C.
Compound *CCOCCOc1ccc(C(=O)OC(=O)c2ccc(O*)cc2)cc1 (repeat unit) has a glass transition temperature of 41.00 °C.
Compound *Oc1ccc(S(=O)(=O)c2ccc(Oc3ccc(C(c4ccc(*)c(Br)c4)(C(F)(F)F)C(F)(F)F)cc3Br)cc2)cc1 (repeat unit) has a glass transition temperature of 197.50 °C.
For *CC(O)COc1ccc(C(C)(C)c2ccc(O*)cc2)cc1 (repeat unit), the glass transition temperature was 91.00 °C.
*CC(C)(C)COC(=O)C1CCC(C(=O)O*)CC1 (repeat unit) gave a glass transition temperature of 30.00 °C.
Work on *CC(*)c1ccc([Si](C)(C)O[Si](C)(C)C)cc1 (repeat unit) yielded a glass transition temperature of 35.50 °C.
With *O[Si](*)(C)CCCOc1ccc(C(=O)OC2CCC3(C)C(=CCC4C3CCC3(C)C(C(C)CCCC(C)C)CCC43)C2)cc1S(=O)(=O)[O][K] (repeat unit) the glass transition temperature was 112.60 °C.
In the case of *C(=O)OCCCCCCCCOC(=O)c1ccc(N2C(=O)c3ccc(*)cc3C2=O)cc1 (repeat unit), the glass transition temperature is reported as 65.00 °C.
Work on *c1cccc(Oc2ccc(-c3ccc(Oc4cccc(-n5c(=O)c6cc7c(=O)n(*)c(=O)c7cc6c5=O)c4)cc3)cc2)c1 (repeat unit) yielded a glass transition temperature of 251.00 °C.
Compound *CCN(CCOC(=O)c1ccc(C(=O)O*)c(OCCCCC)c1)c1ccc(/N=N/c2nc(C#N)c(C#N)[nH]2)cc1 (repeat unit) has a glass transition temperature of 131.00 °C.
*CCN(*)C(=O)C(OC)(c1ccccc1)C(F)(F)F (repeat unit) showed a glass transition temperature of 89.00 °C.
With *CC(*)c1ccc(C(C)(O)CCCCC)cc1 (repeat unit) the glass transition temperature was 100.00 °C.
For *c1cc(C(=O)Oc2ccc(-c3ccc(O[Si](C)(C)C(C)(C)C)cc3)cc2)cc(N2C(=O)c3ccc(-c4ccc5c(c4)C(=O)N(*)C5=O)cc3C2=O)c1 (repeat unit), the glass transition temperature was 230.00 °C.
In the case of *C(=O)Nc1ccc(-c2cc(-c3ccccc3)cc(-c3ccc(NC(=O)c4ccc5c(c4)C(=O)N(c4ccc(NC(=O)Nc6ccc(N7C(=O)c8ccc(*)cc8C7=O)cc6)cc4)C5=O)cc3)n2)cc1 (repeat unit), the glass transition temperature is reported as 215.00 °C.
*O[Si](C)(C)O[Si](C)(C)O[Si](C)(C)O[Si](C)(C)O[Si](C)(C)c1ccc(Oc2ccc([Si](*)(C)C)cc2)cc1 (repeat unit) gave a glass transition temperature of -65.00 °C.
Work on *c1ccc(Oc2ccc(Sc3ccc(Oc4ccc(-c5nc(*)nc(-c6ccccc6)n5)cc4)cc3)cc2)cc1 (repeat unit) yielded a glass transition temperature of 211.00 °C.
With *CCCCCNC(=O)c1ccc(C(=O)N*)cc1 (repeat unit) the glass transition temperature was 177.00 °C.
In the case of *CC(*)(C)C(=O)Oc1ccc(C(=O)/C=C/c2ccc(OC)c(OC)c2)cc1 (repeat unit), the glass transition temperature is reported as 137.00 °C.
*c1ccc2c(c1)C(=O)N(c1ccc(Oc3c(C)cc(Cc4cc(C)c(Oc5ccc(N6C(=O)c7ccc(C(*)(C(F)(F)F)C(F)(F)F)cc7C6=O)cc5)c(C)c4)cc3C)cc1)C2=O (repeat unit) gave a glass transition temperature of 298.00 °C.
For *c1cc(N2C(=O)c3ccc(Oc4ccc5ccc(Oc6ccc7c(c6)C(=O)N(*)C7=O)cc5c4)cc3C2=O)cc(C(F)(F)F)c1 (repeat unit), the glass transition temperature was 235.00 °C.
In the case of *CC(CC(*)(C#N)C#N)c1ccc(OC(C)=O)cc1 (repeat unit), the glass transition temperature is reported as 180.00 °C.
Compound *CC(C)(C)C(=O)O* (repeat unit) has a glass transition temperature of -12.00 °C.
Work on *Oc1ccc(C(C)(C)c2ccc(OC(=O)c3ccc(Cc4ccc(C(*)=O)cc4)cc3)cc2)cc1 (repeat unit) yielded a glass transition temperature of 205.00 °C.
In the case of *CC(*)(C)C(=O)OCCCCCC (repeat unit) [poly(hexyl methacrylate)], the glass transition temperature is reported as -6.6 ± 7.2 °C.
With *O[Si](*)(C)CCCC(=O)OCCO (repeat unit) the glass transition temperature was -58.00 °C.
With *c1ccc2c(c1)C(=O)N(c1ccc(NC(=S)/N=C/c3ccc(Cl)c(N4C(=O)c5ccc(C(*)(C(F)(F)F)C(F)(F)F)cc5C4=O)c3)cc1)C2=O (repeat unit) the glass transition temperature was 272.00 °C.
Compound *c1cccc(NC(=O)c2ccc(OCCOCCOCCOc3ccc(C(=O)Nc4ccc5[nH]c(*)nc5c4)cc3)cc2)c1 (repeat unit) has a glass transition temperature of 180.00 °C.
*Nc1ccc(C(=O)c2ccc(NC(=O)c3ccc(C(*)=O)cc3)cc2)cc1 (repeat unit) showed a glass transition temperature of 300.00 °C.
For *Oc1ccc(Cc2ccc(OC(=O)c3ccc(C(C)(C)c4ccc(C(*)=O)cc4)cc3)cc2)cc1 (repeat unit), the glass transition temperature was 140.00 °C.
In the case of *O[Si](*)(C)CCCC(=O)OCCCC (repeat unit), the glass transition temperature is reported as -91.00 °C.
With *Oc1ccc(C(=O)OCC(C)(C)COC(=O)c2ccc(*)cc2)cc1 (repeat unit) the glass transition temperature was 73.00 °C.
Work on *c1ccc(NC(=O)c2ccc(NC(=O)c3ccc([Si](C)(C)c4ccc(C(=O)Nc5ccc(C(=O)Nc6ccc(-c7sc(*)c(-c8ccccc8)c7-c7ccccc7)cc6)cc5)cc4)cc3)cc2)cc1 (repeat unit) yielded a glass transition temperature of 337.00 °C.
For *O[Si](C)(C)CCC/N=C/c1cc(Cc2ccc(O)c(/C=N/CCC[Si](*)(C)C)c2)ccc1O (repeat unit), the glass transition temperature was -51.62 °C.
In the case of *COCOc1ccc(C(=O)OC(=O)c2ccc(O*)cc2)cc1 (repeat unit), the glass transition temperature is reported as 57.00 °C.
In the case of *c1ccc(*)c(C(=O)c2ccccc2)c1 (repeat unit), the glass transition temperature is reported as 180.00 °C.
Work on *CCCN(Cc1ccccc1)C(=O)S* (repeat unit) yielded a glass transition temperature of 27.00 °C.
Compound *CC(*)c1ccc(B(Oc2ccc(B3OC(C)(C)C(C)(C)O3)c3cccnc23)c2ccc(C(C)(C)C)cc2)cc1 (repeat unit) has a glass transition temperature of 275.00 °C.
With *Oc1cc(Br)cc(Br)c1* (repeat unit) the glass transition temperature was 170.00 °C.
For *Oc1cccc2c(OC3(F)C(*)(F)C(F)(F)C3(F)F)cccc12 (repeat unit), the glass transition temperature was 138.00 °C.
Compound *CCCOC(=O)C(C)O* (repeat unit) has a glass transition temperature of -33.00 °C.
In the case of *c1ccc2c(c1)C(=O)N(c1cccc(Oc3ccc(N4C(=O)c5ccc(-c6c(-c7ccccc7)c(-c7ccccc7)c(-c7ccc(Sc8ccc(-c9c(-c%10ccccc%10)c(-c%10ccccc%10)c(*)c(-c%10ccccc%10)c9-c9ccccc9)cc8)cc7)c(-c7ccccc7)c6-c6ccccc6)cc5C4=O)cc3)c1)C2=O (repeat unit), the glass transition temperature is reported as 300.00 °C.
For *Oc1ccc(/N=N/c2c(C)cc(Cc3cc(C)c(/N=N/c4ccc(OC(=O)c5ccc(C(*)=O)cc5)cc4)c(C)c3[N+](=O)[O-])c([N+](=O)[O-])c2C)cc1 (repeat unit), the glass transition temperature was 203.00 °C.
Work on *Oc1ccc(S(=O)(=O)c2cccc3c(S(=O)(=O)c4ccc(Oc5ccc(-c6ccc(*)cc6)cc5)cc4)cccc23)cc1 (repeat unit) yielded a glass transition temperature of 248.00 °C.
Work on *C1CCC(CC2CCC(N3C(=O)c4ccc(-c5ccc6c(c5)C(=O)N(*)C6=O)cc4C3=O)CC2)CC1 (repeat unit) yielded a glass transition temperature of 242.00 °C.
With *Oc1ccc(C(C)(C)c2ccc(Oc3ccc(C(=O)c4ccc(C(c5ccc(C(=O)c6ccc(*)cc6)cc5)(C(F)(F)F)C(F)(F)F)cc4)cc3)cc2)cc1 (repeat unit) the glass transition temperature was 181.00 °C.
For *c1cccc(N2C(=O)c3ccc(P(=O)(c4ccccc4)c4ccc5c(c4)C(=O)N(*)C5=O)cc3C2=O)c1 (repeat unit), the glass transition temperature was 323.00 °C.
Work on *c1cc(C)c(-c2c(C)cc(N3C(=O)c4ccc(-c5ccc6c(c5)C(=O)N(*)C6=O)cc4C3=O)cc2C)c(C)c1 (repeat unit) yielded a glass transition temperature of 280.00 °C.
For *Sc1ccc(Nc2ccc(Nc3ccc(*)cc3)cc2)cc1 (repeat unit), the glass transition temperature was 114.00 °C.
With *CC(*)CCCCCCC (repeat unit) [Poly(heptylethylene)] the glass transition temperature was -47.58 ± 0.8 °C.
*/C=C/C1CC(*)C2CC=CC12 (repeat unit) gave a glass transition temperature of 53.00 °C.
With *CC(*)(C)C(=O)OC(COc1cccc2ccccc12)COc1cccc2ccccc12 (repeat unit) the glass transition temperature was 80.00 °C.
Work on *CC(*)(C)C(=O)OCCCCCCCCCCOc1ccc(OC(=O)c2ccc(OCCCCCC)cc2)cc1 (repeat unit) yielded a glass transition temperature of 41.00 °C.
